In US12263172B2, “Toll-like receptor agonists for use in the treatment of hepatitis b” (priority 2019, dated 2025):
Where “and” joins values, the source holds several entries; their conditions need not be identical. Equal entries are not always repeated.

Assay: Phase 1 single-ascending dose (Part 1): safety and tolerability in healthy adults
Type: in vivo, human
Description: This ongoing trial is a Phase 1 randomized, double-blind, placebo-controlled study in male and female healthy adult volunteers aged 18-55 years. All volunteers provided written, informed consent.
All volunteers were followed up for 4 weeks and safety and tolerability were continuously assessed throughout the study. All adverse events (AEs) were recorded from the time of consent to the completion visit and were graded using the DAIDS toxicity grading scale. Volunteers also underwent physical examinations, electrocardiograms, vital sign checks and clinical laboratory parameters (chemistry, haematology, urinalysis).

## CCCCOc1nc(N)c2[nH]cc(Cc3ccc(CN4CCCC4)cc3)c2n1 [Compound 4]
Single dose 0.6 mg fasted
  lab toxicity: Cholesterol (mmol/L), upwards, Grade 2: 0 n (%)
  lab toxicity: Creatine kinase (U/L), upwards, Grade 1: 0 n (%)
  lab toxicity: Creatine kinase (U/L), upwards, Grade 2: 1 (16.7%) n (%)
  lab toxicity: Creatine kinase (U/L), upwards, Grade 4: 0 n (%)
  lab toxicity: Glucose (mmol/L), upwards, Grade 1: 1 (16.7%) n (%)
  lab toxicity: Glucose (mmol/L), upwards, Grade 2: 1 (16.7%) n (%)
  lab toxicity: LDL cholesterol (mmol/L, calculated), upwards, Grade 1: 2 (33.3%) n (%)
  lab toxicity: LDL cholesterol (mmol/L, calculated), upwards, Grade 2: 1 (16.7%) n (%)
  lab toxicity: LDL cholesterol (mmol/L, calculated), upwards, Grade 3: 0 n (%)
  lab toxicity: Lymphocytes (giga/L), downwards, Grade 2: 0 n (%)
  lab toxicity: Lymphocytes (giga/L), downwards, Grade 4: 0 n (%)
  lab toxicity: Neutrophils, segmented (giga/L), downwards, Grade 1: 0 n (%)
  lab toxicity: Neutrophils, segmented (giga/L), downwards, Grade 2: 0 n (%)
  lab toxicity: Platelets (giga/L), downwards, Grade 1: 0 n (%)
  lab toxicity: Sodium (mmol/L), upwards, Grade 1: 2 (33.3%) n (%)
  lab toxicity: Sodium (mmol/L), upwards, Grade 2: 1 (16.7%) n (%)
  lab toxicity: Triglycerides (mmol/L), upwards, Grade 1: 4 (66.7%) n (%)
  lab toxicity: Triglycerides (mmol/L), upwards, Grade 2: 0 n (%)
  lab toxicity: Triglycerides (mmol/L), upwards, Grade 3: 0 n (%)
  lab toxicity: Urate (μmol/L), upwards, Grade 1: 0 n (%)
  subjects with at least one AE: 3 (50.0%) n (%)
  subjects with at least one AE for which any study drug or study was permanently stopped: 0 n (%)
  subjects with at least one AE for which any study drug or study was temporarily stopped: 0 n (%)
  subjects with at least one AE possibly related to any study drug: 1 (16.7%) n (%)
  subjects with at least one AE possibly, probably or very likely related to any study drug: 1 (16.7%) n (%)
  subjects with at least one AE probably related to any study drug: 0 n (%)
  subjects with at least one AE very likely related to any study drug: 0 n (%)
  subjects with at least one SAE: 0 n (%)
  subjects with at least one fatal AE: 0 n (%)
  subjects with at least one grade 1 AE: 3 (50.0%) n (%)
  subjects with at least one grade 2 AE: 0 n (%)
  subjects with at least one grade 3 or 4 AE: 0 n (%)
  treatment-related AE: Any AE: 1 (16.7%) n (%)
  treatment-related AE: Chills: 0 n (%)
  treatment-related AE: Dizziness: 0 n (%)
  treatment-related AE: General disorders and administration site conditions: 0 n (%)
  treatment-related AE: Headache: 0 n (%)
  treatment-related AE: Hypertension: 0 n (%)
  treatment-related AE: Myalgia: 0 n (%)
  treatment-related AE: Nervous system disorders: 0 n (%)
  treatment-related AE: Oropharyngeal pain: 0 n (%)
  treatment-related AE: Pyrexia: 0 n (%)
  treatment-related AE: Respiratory, thoracic and mediastinal disorders: 1 (16.7%) n (%)
  treatment-related AE: Vascular disorder: 0 n (%)
  vital signs: Respiratory rate (brpm) Grade 1: 3 (50.0%) n (%)
  vital signs: Respiratory rate (brpm) Grade 2: 0 n (%)
  vital signs: SaO2 (%) 90% to <95%: 0 n (%)
  vital signs: SaO2 (%) 95% to <98%: 4 (66.7%) n (%)
  vital signs: Standing DBP (mmHg) Grade 1: 0 n (%)
  vital signs: Standing DBP (mmHg) Grade 2: 0 n (%)
  vital signs: Standing DBP (mmHg) Grade 3: 0 n (%)
  vital signs: Standing DBP (mmHg) Low: 0 n (%)
  vital signs: Standing SBP (mmHg) Grade 1: 1 (16.7%) n (%)
  vital signs: Standing SBP (mmHg) Low: 0 n (%)
  vital signs: Standing pulse (bpm) High: 0 n (%)
  vital signs: Standing pulse (bpm) Low: 0 n (%)
  vital signs: Supine DBP (mmHg) Grade 1: 0 n (%)
  vital signs: Supine DBP (mmHg) Low: 1 (16.7%) n (%)
  vital signs: Supine SBP (mmHg) Grade 1: 1 (16.7%) n (%)
  vital signs: Supine SBP (mmHg) Grade 2: 0 n (%)
  vital signs: Supine SBP (mmHg) Low: 0 n (%)
  vital signs: Supine pulse (bpm) Low: 1 (16.7%) n (%)
  ↑ AST Grade 3 (laboratory abnormality): 0 n (%)
  ↑ Amylase Grade 2 (laboratory abnormality): 0 n (%)
  ↑ Cholesterol Grade 2 (laboratory abnormality): 0 n (%)
  ↑ Creatine kinase Grade 2 (laboratory abnormality): 1 (17) n (%)
  ↑ Creatine kinase Grade 4 (laboratory abnormality): 0 n (%)
  ↑ Glucose Grade 2 (laboratory abnormality): 1 (17) n (%)
  ↑ LDL cholesterol Grade 2 (laboratory abnormality): 1 (17) n (%)
  ↑ LDL cholesterol Grade 3 (laboratory abnormality): 0 n (%)
  ↑ Lipase Grade 2 (laboratory abnormality): 0 n (%)
  ↑ Pancreatic amylase Grade 2 (laboratory abnormality): 0 n (%)
  ↑ Potassium Grade 2 (laboratory abnormality): 0 n (%)
  ↑ Sodium Grade 2 (laboratory abnormality): 1 (17) n (%)
  ↑ Triglycerides Grade 2 (laboratory abnormality): 0 n (%)
  ↑ Triglycerides Grade 3 (laboratory abnormality): 0 n (%)
  ↓ Bicarbonate Grade 2 (laboratory abnormality): 0 n (%)
  ↓ GFR Grade 2 (laboratory abnormality): 0 n (%)
  ↓ Lymphocytes Grade 2 (laboratory abnormality): 0 n (%)
  ↓ Lymphocytes Grade 4 (laboratory abnormality): 0 n (%)
  ↓ Neutrophils Grade 2 (laboratory abnormality): 0 n (%)
  ↓ Phosphate Grade 2 (laboratory abnormality): 0 n (%)
Single dose 1.25 mg
  subjects with headache (AE): 4 (50.0%) n (%)
  subjects with myalgia (AE): 3 (37.5%) n (%)
  subjects with pyrexia (AE): 3 (37.5%) n (%)
Single dose 1.25 mg fasted
  Any AE (treatment-emergent): 8 (100) n (%)
  Back pain Grade 1 (treatment-emergent AE): 1 (13) n (%)
  Chills Grade 1 (treatment-emergent AE): 0 n (%)
  Contact dermatitis Grade 1 (treatment-emergent AE): 0 n (%)
  Dizziness Grade 1 (treatment-emergent AE): 0 n (%)
  ECG actual value: Heart rate (bpm) Low: 0 n (%)
  ECG actual value: QRS (ms) High: 1 (12.5%) n (%)
  ECG actual value: QTcB (ms) ]450; 480]: 1 (12.5%) n (%)
  ECG actual value: QTcF (ms) ]450; 480]: 1 (12.5%) n (%)
  ECG change from reference: QTcB (ms) [30; 60]: 3 (37.5%) n (%) and 3 (37.5%)^a n (%)
  ECG change from reference: QTcF (ms) [30; 60]: 1 (12.5%) n (%) and 1 (12.5%)^a n (%)
  Headache Grade 1 (treatment-emergent AE): 4 (50) n (%)
  Headache Grade 2 (treatment-emergent AE): 0 n (%)
  Hypertension Grade 1 (treatment-emergent AE): 0 n (%)
  Hypertension Grade 2 (treatment-emergent AE): 0 n (%)
  Myalgia Grade 1 (treatment-emergent AE): 3 (38) n (%)
  Oropharyngeal pain Grade 1 (treatment-emergent AE): 2 (25) n (%)
  Pyrexia Grade 1 (treatment-emergent AE): 2 (25) n (%)
  Pyrexia Grade 2 (treatment-emergent AE): 1 (13) n (%)
  URTI Grade 1 (treatment-emergent AE): 2 (25) n (%)
  lab toxicity: Amylase (U/L), upwards, Grade 1: 1 (12.5%) n (%)
  lab toxicity: Amylase (U/L), upwards, Grade 2: 0 n (%)
  lab toxicity: Cholesterol (mmol/L), upwards, Grade 1: 1 (12.5%) n (%)
  lab toxicity: Cholesterol (mmol/L), upwards, Grade 2: 0 n (%)
  lab toxicity: Creatine kinase (U/L), upwards, Grade 1: 0 n (%)
  lab toxicity: Creatine kinase (U/L), upwards, Grade 2: 0 n (%)
  lab toxicity: Creatine kinase (U/L), upwards, Grade 4: 0 n (%)
  lab toxicity: Glucose (mmol/L), upwards, Grade 1: 3 (37.5%) n (%)
  lab toxicity: Glucose (mmol/L), upwards, Grade 2: 1 (12.5%) n (%)
  lab toxicity: LDL cholesterol (mmol/L, calculated), upwards, Grade 1: 0 n (%)
  lab toxicity: LDL cholesterol (mmol/L, calculated), upwards, Grade 2: 0 n (%)
  lab toxicity: LDL cholesterol (mmol/L, calculated), upwards, Grade 3: 1 (12.5%) n (%)
  lab toxicity: Lymphocytes (giga/L), downwards, Grade 2: 1 (12.5%) n (%)
  lab toxicity: Lymphocytes (giga/L), downwards, Grade 4: 0 n (%)
  lab toxicity: Neutrophils, segmented (giga/L), downwards, Grade 1: 2 (25.0%) n (%)
  lab toxicity: Neutrophils, segmented (giga/L), downwards, Grade 2: 0 n (%)
  lab toxicity: Platelets (giga/L), downwards, Grade 1: 1 (12.5%) n (%)
  lab toxicity: Sodium (mmol/L), upwards, Grade 1: 2 (25.0%) n (%)
  lab toxicity: Sodium (mmol/L), upwards, Grade 2: 1 (12.5%) n (%)
  lab toxicity: Triglycerides (mmol/L), upwards, Grade 1: 3 (37.5%) n (%)
  lab toxicity: Triglycerides (mmol/L), upwards, Grade 2: 4 (50.0%) n (%)
  lab toxicity: Triglycerides (mmol/L), upwards, Grade 3: 0 n (%)
  lab toxicity: Urate (μmol/L), upwards, Grade 1: 0 n (%)
  subjects with Grade 2 treatment-related AEs (pyrexia): 1 (12.5%) n (%)
  subjects with at least one AE: 8 (100%) n (%)
  subjects with at least one AE for which any study drug or study was permanently stopped: 1 (12.5%) n (%)
  subjects with at least one AE for which any study drug or study was temporarily stopped: 0 n (%)
  subjects with at least one AE possibly related to any study drug: 5 (62.5%) n (%)
  subjects with at least one AE possibly, probably or very likely related to any study drug: 6 (75.0%) n (%)
  subjects with at least one AE probably related to any study drug: 3 (37.5%) n (%)
  subjects with at least one AE very likely related to any study drug: 0 n (%)
